How the values were obtained:
Test in all cases: relative viability (nuclei count vs DMSO), 5 days (fraction); higher = more cells survive
Doramapimod + Foretinib = compound: Cc1ccc(-n2nc(C(C)(C)C)cc2NC(=O)Nc2ccc(OCCN3CCOCC3)c3ccccc23)cc1 [Doramapimod] + COc1cc2c(Oc3ccc(NC(=O)C4(C(=O)Nc5ccc(F)cc5)CC4)cc3F)ccnc2cc1OCCCN1CCOCC1 [Foretinib] (partner 0.25 µM)
Method in brief: (§1)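 Nuclei were stained with Hoechst during a one-step fixation (final 0.05% Triton X-100, 1% formaldehyde, 1 ug/ml Hoechst) carried out 5 days after dosing, then counted on 4× images. The cells, lung cancer lines in 1536-well plates, had been dosed by pin tool the day after seeding with one drug alone or a fixed anchor-drug dose plus five library-drug doses (not always all listed) in √10 steps. Relative viability is the nuclei count in treated wells divided by that in vehicle wells, and each value is the median of duplicate plates.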

IPA-3 + Foretinib = compound: C1=CC=C2C(=C1)C=CC(=C2SSC3=C(C=CC4=CC=CC=C43)O)O [IPA-3] + COc1cc2c(Oc3ccc(NC(=O)C4(C(=O)Nc5ccc(F)cc5)CC4)cc3F)ccnc2cc1OCCCN1CCOCC1 [Foretinib] (partner 0.25 µM)
Method in brief: as §1

Doramapimod + Luminespib = compound: Cc1ccc(-n2nc(C(C)(C)C)cc2NC(=O)Nc2ccc(OCCN3CCOCC3)c3ccccc23)cc1 [Doramapimod] + CCNC(=O)c1noc(-c2cc(C(C)C)c(O)cc2O)c1-c1ccc(CN2CCOCC2)cc1 [Luminespib] (partner 0.01 µM)
Method in brief: as §1

RAF265 + AZD7762 = compound: Cn1c(Nc2ccc(C(F)(F)F)cc2)nc2cc(Oc3ccnc(-c4ncc(C(F)(F)F)[nH]4)c3)ccc21 [RAF265] + NC(=O)Nc1cc(-c2cccc(F)c2)sc1C(=O)N[C@H]1CCCNC1 [AZD7762] (partner 0.2 µM)
Method in brief: as §1

Row | Cell Line | relative viability (Doramapimod + Foretinib; first compound 0.02 µM) | relative viability (Doramapimod + Foretinib; first compound 0.06325 µM) | relative viability (Doramapimod + Foretinib; first compound 0.2 µM) | relative viability (Doramapimod + Foretinib; first compound 0.6325 µM) | relative viability (Doramapimod + Foretinib; first compound 2 µM) | relative viability (IPA-3 + Foretinib; first compound 0.2 µM) | relative viability (IPA-3 + Foretinib; first compound 0.6325 µM) | relative viability (IPA-3 + Foretinib; first compound 2 µM) | relative viability (IPA-3 + Foretinib; first compound 6.325 µM) | relative viability (IPA-3 + Foretinib; first compound 20 µM) | relative viability (Doramapimod + Luminespib; first compound 0.02 µM) | relative viability (Doramapimod + Luminespib; first compound 0.06325 µM) | relative viability (Doramapimod + Luminespib; first compound 0.2 µM) | relative viability (Doramapimod + Luminespib; first compound 0.6325 µM) | relative viability (Doramapimod + Luminespib; first compound 2 µM) | relative viability (RAF265 + AZD7762; first compound 0.01 µM) | relative viability (RAF265 + AZD7762; first compound 0.03162 µM) | relative viability (RAF265 + AZD7762; first compound 0.1 µM) | relative viability (RAF265 + AZD7762; first compound 0.3162 µM) | relative viability (RAF265 + AZD7762; first compound 1 µM)
1 | SK-LU-1 | 0.805 | 0.82 | 0.847 | 0.873 | 0.759 | 1.01 | 0.78 | 0.908 | 0.828 | 0.911 | 0.208 | 0.204 | 0.172 | 0.218 | 0.186 | – | – | – | – | –
2 | LOU-NH91 | 1.01 | 0.938 | 1.02 | 1.07 | 0.681 | 0.955 | 0.861 | 0.942 | 0.916 | 1.07 | 0.408 | 0.324 | 0.28 | 0.315 | 0.282 | 0.756 | 0.71 | 0.687 | 0.631 | 0.551
3 | LXF-289 | 0.955 | 1.04 | 0.999 | 0.955 | 0.928 | 1 | 0.919 | 0.993 | 1.01 | 1.11 | 0.644 | 0.757 | 0.607 | 0.732 | 0.616 | 1.12 | 1.26 | 1.24 | 0.849 | 0.871
4 | NCI-H1299 | 1.07 | 1.09 | 1.15 | 1.04 | 1.01 | 1.1 | 1.07 | 1.17 | 0.678 | 1.06 | – | – | – | – | – | – | – | – | – | –
5 | HARA | 0.88 | 0.841 | 0.767 | – | 0.746 | 1.23 | 0.854 | 0.943 | 0.855 | 1.31 | 0.779 | 0.688 | 0.873 | – | 0.576 | 0.315 | 0.128 | 0.303 | 0.419 | 0.221
6 | LU99A | 0.791 | 0.781 | 0.914 | 0.801 | 0.724 | 0.877 | 0.734 | 0.687 | 0.763 | 0.921 | 0.26 | 0.239 | 0.239 | 0.199 | 0.24 | 0.419 | 0.344 | 0.404 | 0.325 | 0.235
7 | 201T | 1.01 | 1.03 | 1.1 | 1.41 | 0.974 | 1.33 | 1.11 | 1.17 | 1.09 | 1.15 | 1.01 | 1.01 | 0.99 | 1.18 | 1 | 0.596 | 0.578 | 0.653 | 0.668 | 0.783
8 | HCC-827 | 1.07 | 1.06 | 1.13 | 1.04 | 0.703 | 1.04 | 1.04 | 1.08 | 0.952 | 0.947 | 0.569 | 0.611 | 0.751 | 0.831 | 0.625 | 0.213 | 0.357 | 0.215 | – | 0.197
9 | NCI-H1666 | 0.948 | 1.05 | 1.02 | 1.08 | 0.971 | 0.988 | 0.926 | 0.976 | 1.01 | 1.16 | 1.02 | 1.06 | 1.06 | 1.06 | 1 | 0.935 | 0.882 | 0.837 | 0.854 | 0.825
10 | NCI-H1915 | 1.02 | 1.13 | 1.18 | 1.12 | 0.995 | 1.13 | 1.06 | 1.08 | 1.11 | 1.11 | 0.58 | 0.821 | 0.793 | 0.9 | 0.712 | 0.649 | 0.655 | 0.663 | 0.602 | 0.41
11 | NCI-H2009 | 1.21 | 1.25 | 1.21 | 1.36 | 1.2 | 1.32 | 1.15 | 1.23 | 1.16 | 1.29 | 1.05 | 1.17 | 1.12 | 1.23 | 1.04 | – | – | – | – | –
12 | ChaGo-K-1 | 0.922 | 0.907 | 0.892 | 0.949 | 0.831 | 0.933 | 0.875 | 0.996 | 0.93 | 1.14 | 0.594 | 0.49 | 0.595 | 0.52 | 0.541 | 0.708 | 0.877 | 0.812 | 0.767 | 0.709
13 | COR-L 105 | 1.03 | 0.834 | 1.04 | 1.34 | 0.917 | 1.24 | 1.11 | 0.744 | 1.02 | 1.15 | 0.883 | 0.73 | 0.645 | 0.851 | 0.719 | – | – | – | – | –
14 | NCI-H2170 | 0.996 | 0.985 | 1 | 1.05 | 1.01 | 1.03 | 0.942 | 1.04 | 0.948 | 1.13 | 0.649 | 0.754 | 0.64 | 0.825 | 0.638 | 0.876 | 0.72 | 0.761 | 0.363 | 0.615
15 | A549 | 0.91 | 1 | 0.992 | 1.06 | 0.875 | 0.988 | 0.927 | 1.01 | 0.884 | 1.21 | – | – | – | – | – | – | – | – | – | –
16 | SW 1573 | 0.862 | 0.769 | 0.749 | 0.836 | 0.663 | 1.06 | 0.83 | 0.806 | 0.808 | 0.893 | 0.235 | 0.181 | 0.207 | 0.692 | 0.185 | – | – | – | – | –
17 | NCI-H1975 | 0.961 | 0.965 | 0.952 | 0.988 | 0.924 | 1.01 | 0.887 | 1.03 | 0.873 | 0.935 | 0.173 | 0.192 | 0.207 | 0.258 | 0.266 | 0.694 | 0.667 | 0.635 | 0.484 | 0.406
18 | Calu-6 | 0.903 | 0.914 | 0.941 | 0.942 | 0.919 | 1.01 | 0.95 | 0.96 | 0.808 | 0.932 | – | – | – | – | – | – | – | – | – | –

Source: the supplement of paper PMC10307832
